From PubChem BioAssay (NCI)
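Five concentrations, 48 hours, 96-well plates. Definition used: TGI = concentration required for complete inhibition of growth.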

Key:
Test in all cases: DTP human tumour cell line panel, 48 h
[1] = test system: KM12 colon
[2] = test system: UACC-257 melanoma
[3] = test system: NCI-H23 lung
[4] = test system: K-562 leukemia
[5] = test system: UO-31 renal
[6] = test system: OVCAR-4 ovarian
[7] = test system: HCT-116 colon
[8] = test system: DU-145 prostate
[9] = test system: TK-10 renal
[10] = test system: OVCAR-5 ovarian
[11] = test system: RPMI-8226 leukemia
[12] = test system: HCT-15 colon
[13] = test system: PC-3 prostate
[14] = test system: IGROV1 ovarian
[15] = test system: SW-620 colon
[16] = test system: MDA-N
[17] = test system: MCF7 breast
[18] = test system: SR leukemia
[19] = test system: OVCAR-3 ovarian
[20] = test system: A498 renal
[21] = test system: HL-60(TB) leukemia
[22] = test system: HOP-92 NSCLC
[23] = test system: SF-539 CNS
[24] = test system: SK-MEL-2 melanoma
[25] = test system: SK-OV-3 ovarian
[26] = test system: HT29 colon
[27] = test system: SK-MEL-5 melanoma
[28] = test system: LOX IMVI melanoma
[29] = test system: MOLT-4 leukemia
[30] = test system: HCC-2998 colon
[31] = test system: HS 578T breast
[32] = test system: NCI-H226 lung
[33] = test system: SK-MEL-28 melanoma
[34] = test system: ACHN renal
[35] = test system: OVCAR-8 ovarian
[36] = test system: CAKI-1 renal
[37] = test system: NCI/ADR-RES ovarian
[38] = test system: CCRF-CEM leukemia
[39] = test system: U251 CNS
[40] = test system: 786-0 renal
[41] = test system: T-47D breast
[42] = test system: RXF 393 renal
[43] = test system: MDA-MB-435
[44] = test system: HOP-62 NSCLC
[45] = test system: NCI-H460 lung
[46] = test system: SF-295 CNS
[47] = test system: NCI-H522 lung
[48] = test system: EKVX NSCLC
[49] = test system: M14 melanoma
[50] = test system: MDA-MB-231 breast
[51] = test system: SF-268 CNS
[52] = test system: A549 NSCLC
[53] = test system: SN12C renal
[54] = test system: MALME-3M melanoma
[55] = test system: SNB-75 CNS
[56] = test system: COLO 205 colon
[57] = test system: UACC-62 melanoma
[58] = test system: SNB-19 CNS

For CC1=NN(c2nc(N)nc(/C(C#N)=C\C3COc4ccccc4C3=O)n2)C(C)(C)C1 (centres undefined), the TGI [1] was > 100 µM, the TGI [2] was > 100 µM and the TGI [3] was 90.5 µM. For the same compound, the TGI [4] was > 100 µM, the TGI [5] was 96.8 µM and the TGI [6] was > 100 µM. The TGI [7] was 75 µM, the TGI [8] was > 100 µM and the TGI [9] was > 100 µM. For the same compound, the TGI [10] was > 100 µM, the TGI [11] was 54.8 µM and the TGI [12] was > 100 µM. The TGI [13] was 77.7 µM, the TGI [14] was > 100 µM and the TGI [15] was > 100 µM. For the same compound, the TGI [16] was 84.6 µM, the TGI [17] was > 100 µM and the TGI [18] was 46.1 µM. For the same compound, the TGI [19] was > 100 µM, the TGI [20] was 63 µM and the TGI [21] was 5.2 µM. For the same compound, the TGI [22] was > 100 µM, the TGI [23] was > 100 µM and the TGI [24] was 42.3 µM. The TGI [25] was 84.7 µM, the TGI [26] was 69 µM and the TGI [27] was > 100 µM. The TGI [28] was > 100 µM, the TGI [29] was 64 µM and the TGI [30] was > 100 µM. The TGI [31] was 85 µM, the TGI [32] was > 100 µM and the TGI [33] was > 100 µM. The TGI [34] was 93.7 µM, the TGI [35] was > 100 µM and the TGI [36] was > 100 µM. For the same compound, the TGI [37] was 35.9 µM, the TGI [38] was > 100 µM and the TGI [39] was > 100 µM. The TGI [40] was > 100 µM, the TGI [41] was 69.1 µM and the TGI [42] was 64.4 µM. For the same compound, the TGI [43] was > 100 µM, the TGI [44] was > 100 µM and the TGI [45] was > 100 µM. For the same compound, the TGI [46] was > 100 µM, the TGI [47] was > 100 µM and the TGI [48] was > 100 µM. The TGI [49] was > 100 µM, the TGI [50] was > 100 µM and the TGI [51] was > 100 µM.
For Cc1cc(C)c(OC(=O)Nc2cccc3ccccc23)c(-c2ccccc2)c1, the TGI [1] was > 100 µM, the TGI [3] was > 100 µM and the TGI [4] was > 100 µM. The TGI [5] was 26.8 µM, the TGI [6] was > 100 µM and the TGI [7] was > 100 µM. The TGI [8] was > 100 µM, the TGI [9] was > 100 µM and the TGI [10] was > 100 µM. For the same compound, the TGI [11] was > 100 µM, the TGI [12] was > 100 µM and the TGI [52] was > 100 µM. The TGI [13] was > 100 µM, the TGI [14] was > 100 µM and the TGI [15] was > 100 µM. For the same compound, the TGI [16] was > 100 µM, the TGI [17] was > 100 µM and the TGI [18] was > 100 µM. For the same compound, the TGI [19] was > 100 µM, the TGI [21] was > 100 µM and the TGI [22] was 78.6 µM. The TGI [23] was > 100 µM, the TGI [25] was > 100 µM and the TGI [26] was > 100 µM. The TGI [27] was 34.6 µM, the TGI [28] was > 100 µM and the TGI [29] was 37.3 µM. The TGI [30] was 91.8 µM, the TGI [53] was > 100 µM and the TGI [31] was > 100 µM. The TGI [32] was 58.4 µM, the TGI [33] was > 100 µM and the TGI [34] was 94.9 µM. The TGI [35] was > 100 µM, the TGI [36] was 93 µM and the TGI [37] was > 100 µM. For the same compound, the TGI [38] was > 100 µM, the TGI [39] was > 100 µM and the TGI [40] was > 100 µM. The TGI [41] was > 100 µM, the TGI [54] was > 100 µM and the TGI [43] was 82.2 µM. The TGI [44] was > 100 µM, the TGI [45] was > 100 µM and the TGI [55] was 47.4 µM. For the same compound, the TGI [46] was > 100 µM, the TGI [56] was > 100 µM and the TGI [57] was > 100 µM. For the same compound, the TGI [48] was > 100 µM, the TGI [49] was > 100 µM and the TGI [50] was > 100 µM. It also gave a TGI [51] of 80.1 µM.
In the case of COc1ccc(C2C=C(c3ccccc3)Nc3nnnn32)cc1 (centres undefined), the TGI [1] is reported as 34.8 µM, the TGI [2] is reported as > 100 µM and the TGI [3] is reported as > 100 µM. For the same compound, the TGI [4] was > 100 µM, the TGI [5] was > 100 µM and the TGI [7] was 29.3 µM. For the same compound, the TGI [8] was > 100 µM, the TGI [9] was 29.8 µM and the TGI [10] was > 100 µM. For the same compound, the TGI [11] was 80.2 µM, the TGI [12] was > 100 µM and the TGI [52] was > 100 µM. The TGI [13] was > 100 µM, the TGI [14] was > 100 µM and the TGI [15] was > 100 µM. The TGI [16] was > 100 µM, the TGI [17] was 84.4 µM and the TGI [18] was > 100 µM. The TGI [19] was 77.8 µM, the TGI [20] was > 100 µM and the TGI [21] was > 100 µM. The TGI [23] was 53.1 µM, the TGI [24] was > 100 µM and the TGI [25] was 93 µM. The TGI [26] was 34.2 µM, the TGI [27] was > 100 µM and the TGI [28] was > 100 µM. The TGI [29] was > 100 µM, the TGI [58] was > 100 µM and the TGI [53] was > 100 µM. For the same compound, the TGI [31] was > 100 µM, the TGI [32] was > 100 µM and the TGI [34] was 60.3 µM. The TGI [35] was > 100 µM, the TGI [36] was > 100 µM and the TGI [37] was > 100 µM. For the same compound, the TGI [38] was > 100 µM, the TGI [39] was 56.1 µM and the TGI [40] was 91.1 µM. For the same compound, the TGI [41] was 60.4 µM, the TGI [42] was 50.9 µM and the TGI [43] was > 100 µM. For the same compound, the TGI [44] was 66.8 µM, the TGI [45] was > 100 µM and the TGI [46] was 88.3 µM. The TGI [56] was > 100 µM, the TGI [57] was > 100 µM and the TGI [47] was 57.7 µM. For the same compound, the TGI [49] was > 100 µM, the TGI [50] was 90.5 µM and the TGI [51] was > 100 µM.
